Assay results as given in publication PMC11672294, “The Antipsychotic Drug Aripiprazole Suppresses Colorectal Cancer by Targeting LAMP2a to Induce RNH1/miR‐99a/mTOR‐Mediated Autophagy and Apoptosis” (Advanced Science, 2024).
Structures can show the parent of a compound that is named as a salt. Where two headings read alike, the source gives them in different places.

Tested on: HT29
Conditions: 72 h, relative to DMSO, 10 µM
Method in brief: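 HT29 viability used WST-1 reduction (2 h, 37 °C, A450) after 72 h of treatment; screening compounds were tested singly at 10 µM, with dimethyl sulfoxide as the comparison.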

Structure (SMILES)	Relative cell viability (%) [%]	Relative cell viability (%) (Relative cell viability (%)) [%]
CC[C@H]1[C@@H](O)[C@@H]2[C@H](CC[C@]3(C)[C@@H]([C@H](C)CCC(=O)O)CC[C@@H]23)[C@@]2(C)CC[C@@H](O)C[C@@H]12 [Obeticholic Acid]	111.1	
Cc1c(-c2cnccn2)ssc1=S [Oltipraz]	84.19	
COc1ccc2[nH]c([S+]([O-])Cc3ncc(C)c(OC)c3C)nc2c1 (stereo not drawn) [Omeprazole]	88.32	
O=C(O)c1cc(=O)[nH]c(=O)[nH]1 [Orotic acid (6-Carboxyuracil)]	101.4	
Cc1ccccc1C(OCCN(C)C)c1ccccc1 (stereo not drawn) [Orphenadrine Citrate]	102.4	
CCOC(=O)C1=C[C@@H](OC(CC)CC)[C@H](NC(C)=O)[C@@H](N)C1 [Oseltamivir Phosphate]	60.68	
OCCOc1ccc(/C(=C(/CCCl)c2ccccc2)c2ccccc2)cc1 [Ospemifene]	80.303	
CCNC1(C(N)=O)CCN(c2ncnc3c2nc(-c2ccccc2Cl)n3-c2ccc(Cl)cc2)CC1 [Otenabant (CP-945598) HCl]	70.09	
CCCCCCCCOc1ccccc1C(=O)Nc1ccc(C(=O)OCC[N+](C)(CC)CC)cc1 [Otilonium Bromide]	59.22	
O=C(O)CCc1nc(-c2ccccc2)c(-c2ccccc2)o1 [Oxaprozin]	63.03	
COC(=O)Nc1nc2ccc([S+]([O-])c3ccccc3)cc2[nH]1 (stereo not drawn) [Oxfendazole]	57.63	
NC(=O)CN1CC(O)CC1=O (stereo not drawn) [Oxiracetam]	54.85	
COc1ccc(C(=O)c2ccccc2)c(O)c1 [Oxybenzone]	118.8	
CCCCOc1cc(C(=O)OCCN(CC)CC)ccc1N [Oxybuprocaine HCl]	56.67	
CCN(CC)CC#CCOC(=O)C(O)(c1ccccc1)C1CCCCC1 (stereo not drawn) [Oxybutynin]	58.9	
CN(C)[C@@H]1C(O)=C(C(N)=O)C(=O)[C@@]2(O)C(O)=C3C(=O)c4c(O)cccc4[C@@](C)(O)[C@H]3[C@H](O)[C@@H]12 [Oxytetracycline Dihydrate]	170.4	
O=C(O)/C=C/c1ccc(Cn2ccnc2)cc1 [Ozagrel HCl]	127.9	
CC(C)Oc1ccc(-c2nc(-c3cccc4c3CC[C@@H]4NCCO)no2)cc1C#N [Ozanimod (RPC1063)]	47.01	
Fc1ccc([C@@H]2CCNC[C@H]2COc2ccc3c(c2)OCO3)cc1 [Paroxetine HCl]	19.9	
Cc1ccc(Nc2nccc(N(C)c3ccc4c(C)n(C)nc4c3)n2)cc1S(N)(=O)=O [Pazopanib]	46.12	
Nc1nc2c(ncn2CCC(CO)CO)c(=O)[nH]1 [Penciclovir]	100.303	
N#Cc1ccccc1-c1cc(-c2ccccn2)cn(-c2ccccc2)c1=O [Perampanel]	104.7	

Structure (SMILES)	Relative cell viability (%) [%]	Relative cell viability (%) (Relative cell viability (%)) [%]
FC(F)(F)c1ccc(CNc2ccc(Cc3c[nH]c4ncc(Cl)cc34)cn2)cn1 [Pexidartinib (PLX3397)]	54.7	
Cc1ccc(-n2nc(C(C)(C)C)cc2NC(=O)NCc2cc(F)ccc2Oc2ccc3c(cnn3CCO)c2)cc1 [Pexmetinib (ARRY-614)]	47.01	
Nc1ccc(/N=N/c2ccccc2)c(N)n1 [Phenazopyridine HCl]	73.94	
O=C1c2ccccc2C(=O)C1c1ccccc1 [Phenindione]	136.8	
COc1ccc(Cl)c(Nc2nc3ccccc3nc2NS(=O)(=O)c2cccc(NC(=O)C(C)(C)N)c2)c1 [Pilaralisib (XL147)]	48.29	
CC[C@@H]1/C=C(\C)C[C@H](C)C[C@H](OC)[C@H]2O[C@@](O)(C(=O)C(=O)N3CCCC[C@H]3C(=O)O[C@H](/C(C)=C/[C@@H]3CC[C@H](Cl)[C@H](OC)C3)[C@H](C)[C@@H](O)CC1=O)[C@H](C)C[C@@H]2OC [Pimecrolimus]	64.96	
CCc1ccc(CCOc2ccc(CC3SC(=O)NC3=O)cc2)nc1 (stereo not drawn) [Pioglitazone HCl]	158.4	
CCN1CCN(C(=O)N[C@@H](C(=O)N[C@@H]2C(=O)N3[C@@H]2SC(C)(C)[C@@H]3C(=O)O)c2ccccc2)C(=O)C1=O [Piperacillin Sodium]	73.94	
O=C(/C=C/C=C/c1ccc2c(c1)OCO2)N1CCCCC1 [Piperine]	104.9	
Cc1ccc(=O)n(-c2ccccc2)c1 [Pirfenidone]	56.31	
O=C(O)C[C@H](O)C[C@H](O)/C=C/c1c(C2CC2)nc2ccccc2c1-c1ccc(F)cc1 [Pitavastatin Calcium]	44.92	
CC[C@@H]([C@H](C)O)n1ncn(-c2ccc(N3CCN(c4ccc(OC[C@@H]5CO[C@@](Cn6cncn6)(c6ccc(F)cc6F)C5)cc4)CC3)cc2)c1=O [Posaconazole]	32.24	
C=CN1CCCC1=O [Povidone iodine]	91.88	
C=CC(=O)N1CCC(Oc2cc3c(Nc4ccc(Cl)c(Cl)c4F)ncnc3cc2OC)CC1 [Poziotinib (HM781-36B)]	68.8	
CCCN[C@H]1CCc2nc(N)sc2C1 [Pramipexole dihydrochloride monohydrate]	205.2	
CC(C)N(CCNC(=O)CN1CCCC1=O)C(C)C [Pramiracetam]	79.61	
O=C(Nc1cccc2c(=O)cc(-c3nnn[nH]3)oc12)c1ccc(OCCCCc2ccccc2)cc1 [Pranlukast]	81.78	
CC(C(=O)O)c1ccc2c(c1)Cc1cccnc1O2 (stereo not drawn) [Pranoprofen]	135	
CC(=O)Oc1cc2c(s1)CCN(C(C(=O)C1CC1)c1ccccc1F)C2 (stereo not drawn) [Prasugrel]	68.07	
CC[C@H](C)C(=O)O[C@H]1C[C@H](O)C=C2C=C[C@H](C)[C@H](CC[C@@H](O)C[C@@H](O)CC(=O)O)[C@H]21 [Pravastatin sodium]	89.81	
C[C@]12C=CC(=O)C=C1CC[C@@H]1[C@@H]2[C@@H](O)C[C@@]2(C)[C@H]1CC[C@]2(O)C(=O)CO [Prednisolone]	56.36	
CC(=O)[C@H]1CC[C@H]2[C@@H]3CC=C4C[C@@H](O)CC[C@]4(C)[C@H]3CC[C@]12C [Pregnenolone]	94.21	

Structure (SMILES)	Relative cell viability (%) [%]	Relative cell viability (%) (Relative cell viability (%)) [%]
CCC1(c2ccccc2)C(=O)NCNC1=O [Primidone]	178.2	
CC(C)(Sc1cc(C(C)(C)C)c(O)c(C(C)(C)C)c1)Sc1cc(C(C)(C)C)c(O)c(C(C)(C)C)c1 [Probucol]	130.3	
CCN(CC)CCNC(=O)c1ccc(N)cc1 [Procainamide HCl]	73.94	
CC(CN1c2ccccc2Sc2ccccc21)N(C)C (stereo not drawn) [Promethazine HCl]	62.12	
CCCOc1ccc(C(=O)OCCN(CC)CC)cc1N [Proparacaine HCl]	89.41	
CCCc1cc(=O)[nH]c(=S)[nH]1 [Propylthiouracil]	201.3	
CCCc1cc(C(N)=S)ccn1 [Protionamide]	123.7	
NC(=O)[C@@H]1CCCN1C(=O)[C@H](Cc1cnc[nH]1)NC(=O)[C@@H]1CCC(=O)N1 [Protirelin]	76.5	
COCCCN1CCC(NC(=O)c2cc(Cl)c(N)c3c2OCC3)CC1 [Prucalopride]	129.1	
COc1ccc(C[C@H](N)C(=O)N[C@H]2[C@@H](O)[C@H](n3cnc4c(N(C)C)ncnc43)O[C@@H]2CO)cc1 [Puromycin 2HCl]	0	
NC(=O)c1cnccn1 [Pyrazinamide]	83.05	
CCc1nc(N)nc(N)c1-c1ccc(Cl)cc1 [Pyrimethamine]	41.03	
OCCOCCN1CCN(C2=Nc3ccccc3Sc3ccccc32)CC1 [Quetiapine Fumarate]	47.46	
COc1cc(Nc2ncc(F)c(Nc3ccc4c(n3)N(COP(=O)(O)O)C(=O)C(C)(C)O4)n2)cc(OC)c1OC [R788 (Fostamatinib) Disodium]		100.8
O=C(c1ccc(OCCN2CCCCC2)cc1)c1c(-c2ccc(O)cc2)sc2cc(O)ccc12 [Raloxifene HCl]	36.92	
Cc1nnc(C(=O)NC(C)(C)c2nc(C(=O)NCc3ccc(F)cc3)c(O)c(=O)n2C)o1 [Raltegravir (MK-0518)]	181.8	
CCC(=O)NCC[C@@H]1CCc2ccc3c(c21)CCO3 [Ramelteon]	64.95	
CCOC(=O)[C@H](CCc1ccccc1)N[C@@H](C)C(=O)N1[C@H](C(=O)O)C[C@@H]2CCC[C@@H]21 [Ramipril]	75.42	
CNC(=C[N+](=O)[O-])NCCSCc1ccc(CN(C)C)o1 [Ranitidine]	97.03	
COc1ccccc1OCC(O)CN1CCN(CC(=O)Nc2c(C)cccc2C)CC1 (stereo not drawn) [Ranolazine]	67.8	
C#CCN[C@@H]1CCc2ccccc21 [Rasagiline Mesylate]	103.1	
O=C(NC(Cc1cc(=O)[nH]c2ccccc12)C(=O)O)c1ccc(Cl)cc1 (stereo not drawn) [Rebamipide]	125.4	
